According to patent publication US8828974B2, “Substituted propane phosphinic acid derivatives” (Aventis Pharmaceuticals Inc., priority 2004, dated 2014):

How the values were obtained:
Male Wistar rats = assay: Chronic Mild Stress Model (CMS), sucrose consumption; assay type: in vivo, rat; conditions: 3 and 30 mg/kg orally, daily for five weeks; imipramine 10 mg/kg ip
Method: The following CMS study is performed using the parent compound 1 (hereafter “compound 1”) in comparison to known anti-depressant compound imipramine.
Male Wistar rats are brought into the laboratory two months before the start of the experiment at which time they weighed approximately 300 grams. Except as described below, the animals are singly housed, with food and water freely available, and maintained on a 12 hour light/dark cycle (lights on at 8 AM) at a temperature of about 22° C.
The animals are first trained to consume a 1% sucrose solution; training consists of eight 1 hour baseline tests in which sucrose is presented, in the home cage, following 14 hours food and water deprivation; intake is measured by weighing pre-weighed bottles containing the sucrose solution at the end of the test. Subsequently, sucrose consumption is monitored, under similar conditions, at weekly intervals throughout the whole experiment.
On the basis of their sucrose intakes in the final baseline test, the animals are divided into two matched groups. One group of animals is subjected to a chronic mild stress procedure for a period of 9 consecutive weeks. […]
Results are analyzed by multiple analysis of variance, followed by Fisher's LSD test for post hoc comparisons of means.

[1] = Relative bioavailability of parent compound 1 in plasma and brain after oral gavage in mice (Example 39); assay type: in vivo, Male CD1 mice; conditions: mouse brain samples 2, 4 and 7 hrs post-dose, LC/MS/MS
Method: Animals: Male CD1 mice (Charles River) weighing about 25 g—with free access to food and water.
Dose Groups: The compounds of this invention were administered to the test animals at a dose, which is molar equivalent to 10 mg/kg of the parent compound 1, ((R)-3-amino-2-hydroxy-propyl)-cyclohexylmethyl-phosphinic acid. Each of the test compounds was formulated at this dose level to yield a dose volume of 10 mL/kg and administered by oral gavage to a group of three mice per time point in each study group.
Formulations: The compounds of this invention were dissolved in vehicle of 0.2% Tween 80 and 0.5% methylcellulose (MC) at a concentration of about 1 mg/mL.
Samples: The blood samples (for plasma) were collected at the following time points: 5, 15 30 and 45 min […]; and 1, 2, 3, 4, 5, and 7 hrs post-dose. Brains were collected at 2, 4 and 7 hrs post-dose
Blood Handling: The blood samples were added to tubes containing 20 μL of a stock 10 mg/ml solution of sodium fluoride. The blood tubes were then stored in a refrigerator at approximately about 4° C. The volume of blood in each of these samples was about 0.4 mL. The samples were then centrifuged in a refrigerated centrifuge. […]
Bioanalysis: All plasma and brain samples were then analyzed for concentrations of the test compound as well as the parent compound 1, ((R)-3-amino-2-hydroxy-propyl)-cyclohexylmethyl-phosphinic acid by LC/MS/MS. […]

In the case of `NC[C@@H](O)CP(=O)(O)CC1CCCCC1` [compound 1, ((R)-3-amino-2-hydroxy-propyl)-cyclohexylmethyl-phosphinic acid], the “activity in CMS (sucrose intake) compared with imipramine” value (Male Wistar rats) is reported as “equal to that of imipramine” and the “concentration of the parent compound 1 in brain” value [1] is reported as “proportional to the concentration of the parent compound in plasma”.
